Data published in publication PMC6353850, “Supersensitive Odorant Receptor Underscores Pleiotropic Roles of Indoles in Mosquito Ecology” (Frontiers in Cellular Neuroscience, 2019).
Counter-ions that a name gives are not always drawn. Like-named read-outs stand apart in the source and are kept apart here.

Experiments:
AaegOR9 = AaegOR9 (Aedes aegypti, UniProt Q177X5); assay: Two-electrode voltage clamp of Xenopus oocytes expressing AaegOR9-ORco (tuning curve and concentration-response); type: cell-based; details: for Rank according to potency (No.): AaegOR9 tuning curve of Figure 1, 500 nM, 1 = most potent of 31; for Ligand potency in AaegOR9 tuning curve (in words) / AaegOR9 response relative to indole (tuning curve): 500 nM odorant; for Ligand potency in AaegOR9 tuning curve (in words): panel of 31 indole derivatives; for AaegOR9 response relative to indole (tuning curve): responses normalized to indole, n = 10
Chain of AaegOR9 (Q178U6 whole entry): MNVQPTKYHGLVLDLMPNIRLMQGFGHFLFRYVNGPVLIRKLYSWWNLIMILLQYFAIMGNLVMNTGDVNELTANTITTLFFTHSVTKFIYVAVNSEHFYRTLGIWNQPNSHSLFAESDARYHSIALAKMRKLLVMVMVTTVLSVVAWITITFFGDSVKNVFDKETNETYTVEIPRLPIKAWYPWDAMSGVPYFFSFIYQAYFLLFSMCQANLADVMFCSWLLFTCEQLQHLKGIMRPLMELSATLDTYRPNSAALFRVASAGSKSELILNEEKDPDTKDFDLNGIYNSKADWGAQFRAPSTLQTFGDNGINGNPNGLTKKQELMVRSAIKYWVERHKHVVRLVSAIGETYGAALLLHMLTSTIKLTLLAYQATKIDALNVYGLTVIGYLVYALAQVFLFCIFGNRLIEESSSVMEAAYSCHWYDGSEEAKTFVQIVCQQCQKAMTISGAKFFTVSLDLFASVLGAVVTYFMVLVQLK
Chain of AaegOR9 (Q177X5 entry or part of it): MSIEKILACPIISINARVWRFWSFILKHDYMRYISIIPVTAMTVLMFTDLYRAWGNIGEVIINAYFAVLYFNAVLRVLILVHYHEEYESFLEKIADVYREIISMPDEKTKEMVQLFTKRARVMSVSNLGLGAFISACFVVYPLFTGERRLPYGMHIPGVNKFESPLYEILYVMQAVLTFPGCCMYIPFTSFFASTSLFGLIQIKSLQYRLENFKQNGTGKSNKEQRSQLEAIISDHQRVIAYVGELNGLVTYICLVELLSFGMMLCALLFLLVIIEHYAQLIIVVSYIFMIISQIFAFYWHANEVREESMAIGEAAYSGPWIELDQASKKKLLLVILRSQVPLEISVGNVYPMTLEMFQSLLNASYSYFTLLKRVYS
Description: The methodologies and protocols have been described in details elsewhere (Bohbot and Dickens, [2009]). AaegOr9 and Aaeg-ORco cRNAs (Bohbot et al., [2011]) were synthesized from linearized pSP64DV expression vectors using the mMESSAGE mMACHINE® SP6 kit (Life Technologies). Stage V-VII oocytes were harvested from Xenopus laevis females, mechanically separated, treated with collagenase (8 mg/mL, 30 min, 18°C) and rinsed in washing solution (96 mM NaCl, 2 mM KCl, 5 mM MgCl2 and 5 mM HEPES, pH 7.6). Oocytes were microinjected with 27.6 ng AaegOr9 and AaegORco cRNAs, incubated at 18°C for 3–4 days in ND96 solution (96 mM NaCl, 2 mM KCl, 5 mM MgCl2, 0.8 mM CaCl2 and 5 mM HEPES, pH 7.6), supplemented with 5% dialyzed horse serum, 50 μg/mL tetracycline, 100 μg/mL streptomycin and 550 μg/mL sodium pyruvate. Whole-cell currents were recorded using the two-microelectrode voltage-clamp technique. During recording sessions, the holding potential was maintained at −80 mV using an OC-725C oocyte clamp (Warner Instruments, LLC, Hamden, CT, USA). Oocytes placed in a RC-3Z oocyte recording chamber (Warner Instruments, LLC, Hamden, CT, USA) were exposed to odorants for 8 s. Current was allowed to return to baseline between odorant applications. Data acquisition and concentration-response analyses were carried out with a Digidata 1550A and the pCLAMP10 software (Molecular Devices, Sunnyvale, CA, USA), and analyzed using GraphPad Prism 7 (GraphPad Software Inc., La Jolla, CA, USA). Stock concentration of odorants (10^−2 M) were dissolved in ringer solution containing 2% dimethyl sulfoxide (DMSO) in order to solubilize the hydrophobic indolic compounds.
The response profile was established using multiple sessions, each including six compounds at a time and indole as an internal reference. […] All the response values were normalized to the indole reference in each recording session (Supplementary Figure 1).
For the establishment of the concentration-response curves, oocytes were exposed to increasing concentrations of indole, skatole and indole-3-carboxaldehyde (I3C; Supplementary Figure 2). Quantitative characterization of OR sensitivity was estimated using the averaged effective concentration at 50% of the maximal response (EC50) over the sample population. The data to establish the concentration response curve and EC50 of AaegOR10-skatole was extracted from a previous study (Bohbot and Dickens, [2012]).
We also included indole and skatole as references (Bohbot et al., [2011]). The screen was carried out using a low odorant concentration (500 nM) in order to mitigate the caveats associated with high ligand concentrations, including receptor adaptation, antagonist effects and technical artifacts such as broad molecular receptive ranges (Bohbot and Pitts, [2015]).

OR11-ORco = system: OR11-ORco; set-up: method as in Wanner et al., 2007; details: Apis mellifera OR11-ORco; pheromone receptor; ref Wanner et al., 2007; cited from earlier work
OR08-ORco = system: OR08-ORco; set-up: method as in Bohbot et al., 2009; details: Aedes aegypti OR08-ORco; kairomone receptor; ref Bohbot et al., 2009; cited from earlier work
OR01-ORco [1] = system: OR01-ORco; set-up: method as in Xu et al., 2012; details: Bombyx mori OR01-ORco; pheromone receptor; ref Xu et al., 2012; cited from earlier work
OR03-ORco [2] = system: OR03-ORco; set-up: method as in Liu et al., 2014; details: Spodoptera exigua OR03-ORco; kairomone receptor; ref Liu et al., 2014; cited from earlier work
OR65-ORco = system: OR65-ORco; set-up: method as in Wang et al., 2010; details: Anopheles gambiae OR65-ORco; kairomone receptor; ref Wang et al., 2010; cited from earlier work
OR06-Orco = system: OR06-Orco; set-up: method as in Wanner et al., 2010; details: Ostrinia nubilalis OR06-Orco; pheromone receptor; ref Wanner et al., 2010; cited from earlier work
OR03-ORco [3] = system: OR03-ORco; set-up: method as in Leary et al., 2012; details: Ostrinia furnacalis OR03-ORco; pheromone receptor; ref Leary et al., 2012; cited from earlier work
OR13-ORco [4] = system: OR13-ORco; set-up: method as in Wang et al., 2011; details: Heliothis virescens OR13-ORco; pheromone receptor; ref Wang et al., 2011; cited from earlier work
OR13-ORco [5] = system: OR13-ORco; set-up: method as in Liu et al., 2013; details: Helicoverpa armigera OR13-ORco; pheromone receptor; ref Liu et al., 2013; cited from earlier work
OR01-ORco [6] = system: OR01-ORco; set-up: method as in Mitsuno et al., 2008; details: Plutella xyllostella OR01-ORco; pheromone receptor; ref Mitsuno et al., 2008; cited from earlier work
OR10-ORco [7] = system: OR10-ORco; set-up: method as in Xu et al., 2012; details: Amyelois transitella OR10-ORco; pheromone receptor; ref Xu et al., 2012; cited from earlier work
OR12-ORco = system: OR12-ORco; set-up: method as in Zhang et al., 2013; details: Spodoptera litura OR12-ORco; kairomone receptor; ref Zhang et al., 2013; cited from earlier work
OR04-ORco = system: OR04-ORco; set-up: method as in Sun et al., 2013; details: Plutella xyllostella OR04-ORco; pheromone receptor; ref Sun et al., 2013; cited from earlier work
OR56-ORco = system: OR56-ORco; set-up: method as in Tanaka et al., 2009; details: Bombyx mori OR56-ORco; kairomone receptor; ref Tanaka et al., 2009; cited from earlier work
Water solubility = type: physicochemical; details: skatole vs indole
OR10-ORco [8] = system: OR10-ORco; set-up: method as in Hughes et al., 2010; details: Culex quinquefasciatus OR10-ORco; kairomone receptor; ref Hughes et al., 2010; cited from earlier work
AaegOR10 = details: Aedes aegypti OR10-ORco; kairomone receptor; ref Bohbot et al., 2012; cited from earlier work

SMILES | Rank according to potency (No.) (AaegOR9) | other results
O=C1Cc2ccccc2N1 [2-Oxindole] | 10 | 
c1ccc2c(Cc3c[nH]c4ccccc34)c[nH]c2c1 [3,3’-Diindolemethane] | 8 | 
OCCc1c[nH]c2ccccc12 [3-(2-Hydroxyethyl) indole] | 12 | 
O=C(O)Cc1c[nH]c2ccccc12 [3-Indole acetic acid] | 28 | 
O=C(O)C=Cc1c[nH]c2ccccc12 [3-Indoleacrylic acid] | 18 | 
N#CCc1c[nH]c2ccccc12 [3-indole acetonitrile] | 4 | Ligand potency in AaegOR9 tuning curve (in words) (AaegOR9): next most potent ligands
Oc1cccc2[nH]ccc12 [4-Hydroxyindole] | 7 | 
Oc1ccc2[nH]ccc2c1 [5-Hydroxyindole] | 9 | 
CC(=O)CCCCCC=CC(=O)O [9-oxo-2-decenoic acid] |  | EC50 (OR11-ORco): 280 nM
C=C[C@H](O)CCCCC [(R)-(−)-1-octen-3-ol] |  | EC50 (OR08-ORco): 158 nM
CCC/C=C\C=C\CCCCCCCCCO [E10,Z12-16:OH (Bombykol), Bombykol] |  | EC50 (OR01-ORco [1]): 45.4 nM
C=CC(=C)CC/C=C(\C)CCC=C(C)C [E-b-farnesene] |  | EC50 (OR03-ORco [2]): 300 nM
C=CCc1ccc(O)c(OC)c1 [Eugenol] |  | EC50 (OR65-ORco): 222 nM
CN(C)Cc1c[nH]c2ccccc12 [Gramine] | 27 | Ligand potency in AaegOR9 tuning curve (in words) (AaegOR9): among the least potent ligands
COc1ccc2c3c([nH]c2c1)C(C)=NCC3 [Harmaline] | 20 | 
Cc1nccc2c1[nH]c1ccccc12 [Harmane] | 6 | 
O=Cc1c[nH]c2ccccc12 [I3C, indole-3-carboxaldehyde] | 2 | Ligand potency in AaegOR9 tuning curve (in words) (AaegOR9): next most potent ligands
O=C1/C(=C2\Nc3ccccc3C2=O)Nc2ccccc21 [Indigo] | 26 | 
ON=CCc1c[nH]c2ccccc12 [Indole-3-acetaldoxime] | 21 | 
NC(=O)Cc1c[nH]c2ccccc12 [Indole-3-acetamide] | 23 | 
C[C@H](NC(=O)Cc1c[nH]c2ccccc12)C(=O)O [Indole-3-acetyl-L-alanine] | 17 | 

SMILES | Rank according to potency (No.) (AaegOR9) | other results
O=C(O)CCCc1c[nH]c2ccccc12 [Indole-3-butyric acid] | 22 | 
OCc1c[nH]c2ccccc12 [Indole-3-carbinole] | 19 | Ligand potency in AaegOR9 tuning curve (in words) (AaegOR9): among the least potent ligands
O=C(O)c1c[nH]c2ccccc12 [Indole-3-carboxylic acid] | 11 | 
O=C(O)CCc1c[nH]c2ccccc12 [Indole-3-propionic acid] | 15 | 
O=S(=O)(O)Oc1c[nH]c2ccccc12 [Indoxyl sulfate potassium salt] | 30 | 
O=C1Nc2ccccc2C1=O [Isatin] | 16 | 
COC(=O)Cc1c[nH]c2ccccc12 [Methyl indole-3-acetate] | 25 | 
COC(=O)c1c[nH]c2ccccc12 [Methyl indole-3-carboxylate] | 5 | Ligand potency in AaegOR9 tuning curve (in words) (AaegOR9): next most potent ligands
c1ccc2c(c1)[nH]c1cnccc12 [Norharmane] | 13 | 
COc1ccc2[nH]c3c(c2c1)CCNC3 [Pinoline] | 31 | 
c1ccc2ncccc2c1 [Quinoline] | 14 | 
NCCc1c[nH]c2ccc(O)cc12 [Serotonin] | 29 | 
NCCc1c[nH]c2ccccc12 [Tryptamine] | 24 | 
CC/C=C\CCCCCCCCCCOC(C)=O [Z1 1-14:OAc] |  | EC50 (OR06-Orco): 860 nM; EC50 (OR03-ORco [3]): 25 nM
CCCC/C=C\CCCCCCCCCC=O [Z1 1-16:Ald] |  | EC50 (OR13-ORco [4]): 367 nM; EC50 (OR13-ORco [5]): 3400 nM; EC50 (OR01-ORco [6]): 880 nM
CC/C=C\C=C/CCCCCCCCCC=O [Z1 1Z13-16:Ald] |  | EC50 (OR10-ORco [7]): 499 nM
CC/C=C\CCOC(C)=O [Z3-6:OAc] |  | EC50 (OR12-ORco): 339 nM
CCCC/C=C\CCCCCCCCOC(C)=O [Z9-14: OAc] |  | EC50 (OR04-ORco): 243 nM
CCCC/C=C\CCCCCCCC=O [Z9-14:Ald] |  | EC50 (OR13-ORco [4]): 240 nM
CC/C=C\CC1=C(C)CCC1=O [Z-jasmone] |  | EC50 (OR56-ORco): 6000 nM
Cc1c[nH]c2ccccc12 [skatole, 3-methylindole] | 1 | Water solubility relative to indole (Water solubility): seven times less water soluble; Ligand potency in AaegOR9 tuning curve (in words) (AaegOR9): most potent ligand; AaegOR9 response relative to indole (tuning curve) (AaegOR9): five times higher than indole; AaegOR9 response relative to indole (tuning curve) (AaegOR9; listed as Skatole): five times more potent than indole; EC50 (AaegOR9; AaegOR9, concentrations 100 pM to 10 μM): ~5 nM; Fold higher sensitivity of AaegOR9 to skatole than to indole (EC50 ratio) (AaegOR9; AaegOR9, skatole vs indole): 176; EC50 (AaegOR9; Aedes aegypti OR9-ORco, kairomone receptor, This study): 4.8 nM; Concentration range activating AaegOR9 (AaegOR9; selective and reversible activation): high picomolar (below 1 nM) to low nanomolar (between 1 and 10 nM); EC50 (OR10-ORco [8]): 90 nM; EC50 (AaegOR10): 109 nM
